Data on 22 molecules can be found in PubChem BioAssay (NCI).

Test systems include EKVX NSCLC; HCT-116 colon; HS 578T breast; MDA-MB-435; MOLT-4 leukemia; SF-268 CNS; SN12C renal; UACC-62 melanoma; UO-31 renal; NCI-H522 lung.
Common to all, as to assay: NCI anticancer screen, dose series, 48 h

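Test compounds were applied to cells in 96-well plates for 48 hours at 5 doses. The concentration for 50% growth inhibition is given as GI50. TGI is the concentration that stops growth completely.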

Take `O=C1/C(=C/c2cccs2)NC(=S)N1CN1CCOCC1`: the TGI in the assay with EKVX NSCLC, in the assay with HCT-116 colon, in the assay with HS 578T breast, in the assay with MDA-MB-435, in the assay on MOLT-4 leukemia and in the assay with SF-268 CNS was above 100 µM each time. The TGI with SN12C renal, in the assay on UACC-62 melanoma and with UO-31 renal was above 100 µM in each case.
Consider `Fc1cc(-c2ncc(Cl)cc2Cl)c2cccccc1-2`, for which the TGI in the assay on EKVX NSCLC, with HCT-116 colon, in the assay with HS 578T breast, in the assay on NCI-H522 lung, in the assay on SF-268 CNS and in the assay with UACC-62 melanoma was above 100 µM throughout. The TGI with UO-31 renal was above 100 µM.
With `C=Cc1cc2c(cc1O)CC[C@@H]1[C@@H]2CC[C@]2(C)[C@@H](O)CC[C@@H]12`, the TGI in the assay on EKVX NSCLC was found to be 29 µM; in the assay with HCT-116 colon, 12.1 µM; in the assay on MDA-MB-435 it was 4.29 µM; in the assay on MOLT-4 leukemia it was 14.5 µM; in the assay on NCI-H522 lung, 20.6 µM; in the assay on SF-268 CNS, 21.9 µM. Also, the TGI stood at 19.5 µM in the assay with SN12C renal, 8.65 µM in the assay with UACC-62 melanoma and 20.5 µM in the assay on UO-31 renal. For the same molecule, the GI50 in the assay on HCT-116 colon was 2.57 µM; with SN12C renal, 5.12 µM; in the assay on UACC-62 melanoma, 2.53 µM.
With `COC(=O)c1cc2c3c(cc(O)c2[nH]1)N(C(=O)C1Cc2cc(OC)c(OC)c(OC)c2N1)CC3CCl` (stereo not drawn), the GI50 with EKVX NSCLC, with MOLT-4 leukemia, with NCI-H522 lung, with SF-268 CNS and in the assay with SN12C renal was below 0.01 µM throughout. The TGI with EKVX NSCLC was below 0.01 µM; in the assay on MOLT-4 leukemia, 0.132 µM; with NCI-H522 lung it was below 0.01 µM; with SF-268 CNS, 0.646 µM; in the assay on SN12C renal, 0.0154 µM.
On to `NC(Cc1c[nH]c2ccccc12)C(=O)O` (stereo not drawn), for which the TGI is above 300 µM in the assay with EKVX NSCLC; above 300 µM in the assay on HCT-116 colon; above 300 µM in the assay with MOLT-4 leukemia; above 300 µM in the assay on NCI-H522 lung; above 300 µM in the assay with SF-268 CNS; above 13.9 µM in the assay on SN12C renal. In addition, the TGI in the assay on UACC-62 melanoma and with UO-31 renal was above 300 µM in each case.
As to `O=C1CC(c2ccc[nH]2)=NN1c1ccccc1`, the TGI in the assay on EKVX NSCLC was above 100 µM; with HCT-116 colon, above 100 µM; in the assay with MDA-MB-435, above 100 µM; with MOLT-4 leukemia, 85.5 µM; in the assay with NCI-H522 lung, above 100 µM; in the assay with SF-268 CNS, above 100 µM. For the same molecule, the TGI with SN12C renal, with UACC-62 melanoma and in the assay on UO-31 renal was above 100 µM each time.
On to `CCOC(=O)/C=C(\N=P(c1ccccc1)(c1ccccc1)c1ccccc1)C(F)(F)C(F)(F)C(F)(F)C(F)(F)C(F)(F)F`, for which the TGI in the assay with HCT-116 colon, with HS 578T breast, in the assay on MDA-MB-435, in the assay with MOLT-4 leukemia, in the assay on SF-268 CNS and with SN12C renal was above 100 µM throughout. Moreover, the TGI with UACC-62 melanoma and with UO-31 renal was above 100 µM each time.
Turning to `N#C[C@@]12CCCC(=O)[C@@H]1[C@H]1CCC[C@H]12`, the TGI in the assay with EKVX NSCLC was 28.6 µM; with HCT-116 colon, 30.8 µM; in the assay with HS 578T breast it was above 100 µM; with MDA-MB-435 it was 33.5 µM; in the assay with MOLT-4 leukemia it was 55.9 µM; with SN12C renal it was 35.1 µM. In addition, the TGI came to 58 µM in the assay on UACC-62 melanoma and 30 µM in the assay on UO-31 renal.
With `CC(C)(C)OC(=O)Nc1cc(-c2ccccc2)co1`, the TGI with EKVX NSCLC was above 100 µM; in the assay on HCT-116 colon, above 100 µM; in the assay with MDA-MB-435, above 100 µM; with MOLT-4 leukemia it was above 100 µM; with NCI-H522 lung, 69.1 µM; in the assay with SF-268 CNS it was 94.4 µM. Besides, the TGI with SN12C renal, with UACC-62 melanoma and in the assay with UO-31 renal was above 100 µM throughout.
On to `Nc1nc(N)c2nc(-c3ccco3)cnc2n1`, for which the TGI with EKVX NSCLC, in the assay with HCT-116 colon, with MOLT-4 leukemia, in the assay with NCI-H522 lung, with SF-268 CNS and in the assay with SN12C renal was above 100 µM throughout. Further, the TGI with UACC-62 melanoma and with UO-31 renal was above 100 µM throughout.
On to `CCOC(=O)c1c(C)[nH]c(/C=C2\N=C(c3ccc[nH]3)C=C2OC)c1C`, for which the GI50 in the assay with EKVX NSCLC was 0.469 µM; in the assay with HCT-116 colon, below 0.0107 µM; in the assay with HS 578T breast, 0.0577 µM; with MDA-MB-435, 0.0186 µM; in the assay on MOLT-4 leukemia it was below 0.012 µM; in the assay with UACC-62 melanoma, 0.0309 µM. In the assay with UO-31 renal, the GI50 was 0.0239 µM. Moreover, the TGI with EKVX NSCLC turned out to be 3.81 µM; in the assay with HS 578T breast it was 0.925 µM; in the assay on MDA-MB-435, 1.15 µM; in the assay on MOLT-4 leukemia, 3.09 µM; in the assay with UACC-62 melanoma, 0.0904 µM; with UO-31 renal, 0.058 µM.
As for `Cn1c2ccccc2n2c(=O)c3cccnc3c(C#N)c12`, the TGI in the assay on EKVX NSCLC, with HCT-116 colon, in the assay on MDA-MB-435, in the assay on MOLT-4 leukemia, with NCI-H522 lung and with SF-268 CNS was above 100 µM throughout. The same molecule registered a TGI in the assay with SN12C renal above 100 µM.
`CCN(CC)CCSc1nc2c(c(=N)n1-c1ccccc1)c(=S)n(-c1ccccc1)c(=S)n2-c1ccccc1`: the TGI in the assay with EKVX NSCLC was 7.31 µM; in the assay with HCT-116 colon, 4.69 µM; with HS 578T breast it was above 90.9 µM; in the assay on MDA-MB-435 it was 3.77 µM; with MOLT-4 leukemia, 2.33 µM; in the assay with SF-268 CNS, 3.9 µM. The results for the TGI in the assay with SN12C renal and with UACC-62 melanoma were 3.29 µM and 3.16 µM, respectively.
In the case of `CN(C)CCNC(=O)c1ccc(NCCCN(C)CCCNc2ccc(C(=O)NCCN(C)C)c3[nH]c4ccc([N+](=O)[O-])cc4c(=O)c23)c2c(=O)c3cc([N+](=O)[O-])ccc3[nH]c12`, the TGI with HCT-116 colon is 0.644 µM; in the assay on HS 578T breast, above 100 µM; in the assay on MDA-MB-435, 0.328 µM; in the assay with MOLT-4 leukemia it was 0.0623 µM; with SN12C renal, 0.668 µM; in the assay on UACC-62 melanoma it was 0.622 µM. In the assay with UO-31 renal, this molecule registered a TGI of 2.01 µM.
`CCOC(=O)c1cc(=O)oc2c1N(C)c1ncccc1N2`: the TGI in the assay on HCT-116 colon, with HS 578T breast, with MDA-MB-435, in the assay on MOLT-4 leukemia, with SF-268 CNS and in the assay with SN12C renal was above 100 µM each time. Also, the TGI in the assay on UACC-62 melanoma and with UO-31 renal was above 100 µM in each case.
Turning to `COc1cc2cc(C(=O)N3CC(CCl)c4c3cc(N(C)C)c3ccccc43)[nH]c2c(OC)c1OC` (stereo not drawn), the TGI is 0.0245 µM with EKVX NSCLC; above 100 µM in the assay on HCT-116 colon; 0.135 µM with HS 578T breast; 0.0608 µM in the assay with MOLT-4 leukemia; 0.0261 µM in the assay on NCI-H522 lung; 0.016 µM with SF-268 CNS. In addition, the TGI in the assay with SN12C renal was found to be 0.235 µM; in the assay on UACC-62 melanoma it was 0.0167 µM.
Turning to `COc1ccc2c(c1)CCCN1CCc3cc(OC)c(OC)cc3C21` (stereo not drawn), the TGI with EKVX NSCLC, in the assay with HCT-116 colon, in the assay with MDA-MB-435, with MOLT-4 leukemia, in the assay with SF-268 CNS and with SN12C renal was above 100 µM each time. The TGI with UACC-62 melanoma and in the assay with UO-31 renal was above 100 µM throughout.
With `Cc1ccc(Nc2sc(C)cc2C#N)c([N+](=O)[O-])c1`, the TGI in the assay on EKVX NSCLC, in the assay on HCT-116 colon, in the assay with MDA-MB-435, in the assay on MOLT-4 leukemia, in the assay with NCI-H522 lung and in the assay on SF-268 CNS was above 100 µM in each case. The TGI in the assay on SN12C renal, with UACC-62 melanoma and with UO-31 renal was above 100 µM in each case.
As for `O=C(NCCCCNCCCNC(=O)c1cc(-c2ccccc2)nc2ccccc12)c1cc(-c2ccccc2)nc2ccccc12`, the TGI came to 3.52 µM with EKVX NSCLC; 3.2 µM in the assay on HCT-116 colon; 3.17 µM in the assay with MDA-MB-435; 3.08 µM in the assay with NCI-H522 lung; 3.38 µM in the assay with SN12C renal; 3.9 µM in the assay with UACC-62 melanoma. This molecule also returned a TGI in the assay with UO-31 renal of 3.21 µM.
Turning to `S=C(c1c[nH]c2ccccc12)N1CCN(c2ccccc2)CC1`, the TGI was above 100 µM in the assay with EKVX NSCLC; above 100 µM in the assay with HCT-116 colon; 38.3 µM in the assay with HS 578T breast; above 100 µM in the assay with MDA-MB-435; above 100 µM in the assay with MOLT-4 leukemia; above 100 µM in the assay on SF-268 CNS. Moreover, the TGI with SN12C renal was 59.9 µM; in the assay with UACC-62 melanoma, above 100 µM.
In the case of `CCc1n[nH]c(=O)n1NC(=O)c1ccccc1C(=O)O`, the TGI in the assay on EKVX NSCLC, in the assay on HCT-116 colon, with MDA-MB-435, with MOLT-4 leukemia, with NCI-H522 lung and in the assay with SF-268 CNS was above 100 µM throughout. Moreover, the TGI in the assay with SN12C renal, in the assay on UACC-62 melanoma and in the assay on UO-31 renal was above 100 µM in each case.
`C/C(=N\O)c1cccc(Nc2nc3ccccc3c3occc23)c1`: the TGI with EKVX NSCLC is 25.6 µM; with HCT-116 colon it was 25.8 µM; with HS 578T breast it was 32.8 µM; in the assay on MDA-MB-435, 24 µM; with MOLT-4 leukemia, 32.9 µM; in the assay on SF-268 CNS, 27.6 µM. In addition, the TGI with SN12C renal was determined as 33.6 µM; in the assay on UACC-62 melanoma it was 5.22 µM.
